From ChEMBL document CHEMBL4334516, “Kinase Chemodiversity from the Arctic: The Breitfussins” (J Med Chem, 2019) come the findings set out here.

One test concerns SK-BR-3. The test is described as follows: Cytotoxicity in human SK-BR-3 cells assessed as reduction in cell viability incubated for 72 hrs by MTS assay. The following applies: SK-BR-3, 72 h. The class given is functional, cell-based.
The subject of a further test is A2058. Description: Cytotoxicity in human A2058 cells assessed as reduction in cell viability incubated for 72 hrs by MTS assay. The class given is functional, cell-based. The following applies: A2058, 72 h.
A further test has as its system MRC5. The test is described as follows: Cytotoxicity in human MRC5 cells assessed as reduction in cell viability incubated for 72 hrs by MTS assay. The following applies: MRC5, 72 h. The class given is cell-based.
In test [1] the target is T1, Mitogen-activated protein kinase 15 (Homo sapiens, UniProt Q8TD08).
T1 sequence (Q8TD08 whole entry): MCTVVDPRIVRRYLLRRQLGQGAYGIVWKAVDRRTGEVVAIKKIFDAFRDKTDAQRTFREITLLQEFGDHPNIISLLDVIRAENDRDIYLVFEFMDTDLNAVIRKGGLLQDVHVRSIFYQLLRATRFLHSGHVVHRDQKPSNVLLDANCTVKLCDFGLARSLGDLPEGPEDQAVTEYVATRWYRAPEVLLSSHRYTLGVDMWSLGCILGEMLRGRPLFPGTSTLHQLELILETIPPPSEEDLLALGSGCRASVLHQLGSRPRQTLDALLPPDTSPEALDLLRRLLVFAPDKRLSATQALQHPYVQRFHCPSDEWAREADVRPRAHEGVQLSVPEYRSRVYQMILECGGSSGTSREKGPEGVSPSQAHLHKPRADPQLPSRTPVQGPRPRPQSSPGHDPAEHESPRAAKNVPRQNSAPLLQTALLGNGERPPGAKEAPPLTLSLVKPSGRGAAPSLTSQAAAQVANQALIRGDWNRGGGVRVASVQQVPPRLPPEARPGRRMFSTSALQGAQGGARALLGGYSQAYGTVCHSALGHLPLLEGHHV
The test is described as follows: Inhibition of ERK8 (unknown origin) by [33P]-ATP filter binding kinase assay.

In test [2] the target is Serine/threonine-protein kinase pim-1 (Homo sapiens, UniProt P11309). The test is described as follows: Inhibition of PIM1 (unknown origin) by [33P]-ATP filter binding kinase assay.
For test [3], the target named is T2, Mitogen-activated protein kinase kinase kinase kinase 2 (Homo sapiens, UniProt Q12851).
T2 sequence (Q12851 whole entry): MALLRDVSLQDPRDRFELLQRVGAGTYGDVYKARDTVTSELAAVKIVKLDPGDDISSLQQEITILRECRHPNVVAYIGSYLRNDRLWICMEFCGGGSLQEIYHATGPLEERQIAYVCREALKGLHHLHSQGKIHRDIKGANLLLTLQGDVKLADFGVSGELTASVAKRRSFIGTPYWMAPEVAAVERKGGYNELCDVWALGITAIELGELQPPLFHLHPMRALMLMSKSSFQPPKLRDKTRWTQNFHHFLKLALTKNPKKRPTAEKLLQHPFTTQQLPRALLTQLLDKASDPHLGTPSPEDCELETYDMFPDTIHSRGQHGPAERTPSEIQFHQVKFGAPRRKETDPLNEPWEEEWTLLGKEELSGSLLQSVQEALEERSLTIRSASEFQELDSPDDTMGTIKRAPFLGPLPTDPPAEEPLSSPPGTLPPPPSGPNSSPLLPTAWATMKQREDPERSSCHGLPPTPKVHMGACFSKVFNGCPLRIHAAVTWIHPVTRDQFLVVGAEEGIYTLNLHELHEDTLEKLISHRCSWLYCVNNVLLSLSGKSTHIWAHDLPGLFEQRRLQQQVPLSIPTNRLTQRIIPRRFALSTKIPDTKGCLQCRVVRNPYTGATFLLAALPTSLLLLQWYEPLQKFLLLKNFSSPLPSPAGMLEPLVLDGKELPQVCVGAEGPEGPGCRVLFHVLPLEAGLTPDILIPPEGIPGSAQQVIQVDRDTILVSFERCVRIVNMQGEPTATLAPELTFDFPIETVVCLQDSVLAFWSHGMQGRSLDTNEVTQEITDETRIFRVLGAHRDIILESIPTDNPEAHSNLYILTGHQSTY
Description: Inhibition of GCK (unknown origin) by [33P]-ATP filter binding kinase assay.

Test [4] deals with T3, Mitogen-activated protein kinase kinase kinase 7 (Homo sapiens, UniProt O43318).
T3 sequence (O43318 whole entry): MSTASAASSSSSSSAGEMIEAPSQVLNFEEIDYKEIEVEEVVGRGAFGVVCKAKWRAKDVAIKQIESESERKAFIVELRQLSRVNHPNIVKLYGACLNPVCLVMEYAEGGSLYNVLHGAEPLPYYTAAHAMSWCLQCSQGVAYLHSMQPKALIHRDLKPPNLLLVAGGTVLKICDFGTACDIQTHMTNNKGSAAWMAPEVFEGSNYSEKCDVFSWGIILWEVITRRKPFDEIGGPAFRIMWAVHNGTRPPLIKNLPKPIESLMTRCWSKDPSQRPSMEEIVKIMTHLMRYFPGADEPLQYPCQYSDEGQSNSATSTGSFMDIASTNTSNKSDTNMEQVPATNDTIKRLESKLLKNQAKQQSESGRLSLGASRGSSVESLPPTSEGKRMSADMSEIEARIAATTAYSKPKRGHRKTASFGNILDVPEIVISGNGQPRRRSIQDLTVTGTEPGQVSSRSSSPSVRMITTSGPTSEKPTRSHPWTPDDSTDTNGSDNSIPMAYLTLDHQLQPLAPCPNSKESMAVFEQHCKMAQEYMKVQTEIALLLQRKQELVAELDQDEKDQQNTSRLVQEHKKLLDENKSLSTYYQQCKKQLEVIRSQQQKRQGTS
The test is described as follows: Inhibition of TAK1 (unknown origin) by [33P]-ATP filter binding kinase assay.

For test [5], the target named is Mitogen-activated protein kinase kinase kinase 9 (Homo sapiens, UniProt P80192). Description: Inhibition of MLK1 (unknown origin) by [33P]-ATP filter binding kinase assay.
In test [6] the target is Receptor-interacting serine/threonine-protein kinase 2 (Homo sapiens, UniProt O43353). The test is described as follows: Inhibition of RIPK2 (unknown origin) by [33P]-ATP filter binding kinase assay.
A further test addresses Aurora kinase B (Homo sapiens, UniProt Q96GD4). Description: Inhibition of Aurora B (unknown origin) by [33P]-ATP filter binding kinase assay.
In test [7] the target is T4, Serine/threonine-protein kinase 17A (Homo sapiens, UniProt Q9UEE5).
T4 sequence (Q9UEE5 whole entry): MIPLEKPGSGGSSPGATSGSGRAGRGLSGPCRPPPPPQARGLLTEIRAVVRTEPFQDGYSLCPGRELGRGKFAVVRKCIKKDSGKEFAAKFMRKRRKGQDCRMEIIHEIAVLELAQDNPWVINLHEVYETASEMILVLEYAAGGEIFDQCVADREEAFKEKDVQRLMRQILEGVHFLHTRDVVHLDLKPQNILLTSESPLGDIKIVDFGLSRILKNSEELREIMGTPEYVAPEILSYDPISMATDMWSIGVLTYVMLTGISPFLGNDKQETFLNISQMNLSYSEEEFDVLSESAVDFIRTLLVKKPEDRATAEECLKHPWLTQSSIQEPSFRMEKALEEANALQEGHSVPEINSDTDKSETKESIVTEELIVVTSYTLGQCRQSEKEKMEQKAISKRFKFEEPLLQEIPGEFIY
The test is described as follows: Inhibition of DRAK1 (unknown origin) expressed in HEK293 cells by NanoLuc-luciferase reporter based intracellular ATP competitiveness assay. It counts as cell-based. (In general: Reporter assays use an easily measured gene product as a stand-in for the process of interest.)

The term IC50 denotes the concentration that gives 50% inhibition.

Sequence of Mitogen-activated protein kinase kinase kinase 9 (P80192 whole entry): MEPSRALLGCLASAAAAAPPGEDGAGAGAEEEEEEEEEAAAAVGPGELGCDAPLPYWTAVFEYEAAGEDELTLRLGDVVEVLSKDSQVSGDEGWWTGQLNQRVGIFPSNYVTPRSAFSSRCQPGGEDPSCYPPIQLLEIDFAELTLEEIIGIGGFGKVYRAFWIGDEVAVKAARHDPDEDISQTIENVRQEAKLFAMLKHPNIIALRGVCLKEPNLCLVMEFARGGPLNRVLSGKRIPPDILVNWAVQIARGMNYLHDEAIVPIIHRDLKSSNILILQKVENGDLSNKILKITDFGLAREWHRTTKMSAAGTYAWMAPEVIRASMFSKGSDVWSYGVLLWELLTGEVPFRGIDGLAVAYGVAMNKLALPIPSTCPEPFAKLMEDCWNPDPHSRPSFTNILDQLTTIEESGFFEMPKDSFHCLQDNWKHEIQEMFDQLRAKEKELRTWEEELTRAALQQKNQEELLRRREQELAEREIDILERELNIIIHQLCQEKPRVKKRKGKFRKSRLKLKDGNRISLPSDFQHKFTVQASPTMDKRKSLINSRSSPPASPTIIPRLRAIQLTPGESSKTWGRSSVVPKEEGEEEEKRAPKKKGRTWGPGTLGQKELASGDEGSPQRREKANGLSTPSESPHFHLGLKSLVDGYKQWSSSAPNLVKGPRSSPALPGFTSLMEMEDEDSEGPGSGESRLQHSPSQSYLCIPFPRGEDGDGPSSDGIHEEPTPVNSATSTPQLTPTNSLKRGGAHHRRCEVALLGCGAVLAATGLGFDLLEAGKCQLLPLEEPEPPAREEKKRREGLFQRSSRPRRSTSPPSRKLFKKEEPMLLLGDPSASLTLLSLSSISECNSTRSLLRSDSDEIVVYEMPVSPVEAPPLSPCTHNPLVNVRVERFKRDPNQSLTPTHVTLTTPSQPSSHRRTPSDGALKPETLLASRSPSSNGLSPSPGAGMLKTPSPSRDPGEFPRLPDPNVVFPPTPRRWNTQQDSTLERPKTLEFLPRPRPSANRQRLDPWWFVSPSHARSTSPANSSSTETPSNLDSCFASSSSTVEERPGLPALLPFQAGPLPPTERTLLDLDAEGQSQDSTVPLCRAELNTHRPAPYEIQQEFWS
Sequence of Serine/threonine-protein kinase pim-1 (P11309 whole entry): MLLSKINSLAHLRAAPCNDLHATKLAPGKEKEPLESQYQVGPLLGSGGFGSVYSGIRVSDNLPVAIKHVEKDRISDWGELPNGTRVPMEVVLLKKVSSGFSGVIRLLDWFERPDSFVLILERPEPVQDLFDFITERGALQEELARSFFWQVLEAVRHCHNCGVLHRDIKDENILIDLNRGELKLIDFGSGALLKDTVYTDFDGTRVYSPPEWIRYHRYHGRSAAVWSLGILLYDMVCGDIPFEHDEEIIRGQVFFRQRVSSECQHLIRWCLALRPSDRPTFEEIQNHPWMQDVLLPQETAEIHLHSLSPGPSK
Sequence of Receptor-interacting serine/threonine-protein kinase 2 (O43353 whole entry): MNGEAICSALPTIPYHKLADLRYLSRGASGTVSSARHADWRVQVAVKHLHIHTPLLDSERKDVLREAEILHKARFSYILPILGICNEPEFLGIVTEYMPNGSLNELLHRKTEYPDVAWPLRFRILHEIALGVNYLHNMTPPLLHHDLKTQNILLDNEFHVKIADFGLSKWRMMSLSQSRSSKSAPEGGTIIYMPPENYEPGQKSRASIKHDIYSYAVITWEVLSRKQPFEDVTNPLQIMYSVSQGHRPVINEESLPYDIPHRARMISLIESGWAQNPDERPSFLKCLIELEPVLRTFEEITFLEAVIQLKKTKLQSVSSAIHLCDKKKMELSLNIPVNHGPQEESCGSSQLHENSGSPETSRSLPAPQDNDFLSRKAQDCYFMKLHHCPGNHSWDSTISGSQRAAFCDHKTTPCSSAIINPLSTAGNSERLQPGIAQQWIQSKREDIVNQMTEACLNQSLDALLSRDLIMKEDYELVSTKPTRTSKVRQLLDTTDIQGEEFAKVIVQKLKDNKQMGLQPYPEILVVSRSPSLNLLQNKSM
Sequence of Aurora kinase B (Q96GD4 whole entry): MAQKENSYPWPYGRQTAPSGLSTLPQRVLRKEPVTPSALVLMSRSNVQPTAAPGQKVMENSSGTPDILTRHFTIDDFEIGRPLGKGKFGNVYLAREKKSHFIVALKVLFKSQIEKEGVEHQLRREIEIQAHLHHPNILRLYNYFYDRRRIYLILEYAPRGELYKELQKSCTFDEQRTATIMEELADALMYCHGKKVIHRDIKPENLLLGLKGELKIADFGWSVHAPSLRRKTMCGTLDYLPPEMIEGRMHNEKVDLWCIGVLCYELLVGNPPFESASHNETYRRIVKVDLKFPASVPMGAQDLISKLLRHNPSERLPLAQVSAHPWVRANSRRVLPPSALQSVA

Consider `COc1cc(Br)cc2[nH]cc(-c3cnc(-c4ccc(Br)[nH]4)o3)c12`, for which the IC50 with SK-BR-3 was more than 10 µM; with A2058 it was more than 10 µM; in the test with MRC5, more than 10 µM; in test [1] it was more than 10 µM; in test [2], more than 10000 nM; in [3], more than 10000 nM. In addition, the IC50 in test [4] is more than 10000 nM; in test [5], more than 10000 nM; in test [6], more than 10 µM; on Aurora kinase B, more than 10000 nM; in test [7] it was more than 10 µM.

Regarding `COc1cc2c(-c3cnc(-c4ccc[nH]4)o3)c[nH]c2cc1Br`, the IC50 in the test with SK-BR-3 is more than 10 µM; in the test with A2058, more than 10 µM; with MRC5, 7.1 µM; in [1] it was 1 µM; in test [2] it was 200 nM; in test [3], 600 nM. For the same compound, the IC50 turned out to be 1200 nM in [4], 600 nM in [5], 1.1 µM in test [6] and 800 nM on Aurora kinase B.

For `COc1cc(Br)cc2[nH]cc(-c3oc(-c4ccc[nH]4)nc3I)c12`, the IC50 was more than 10 µM in the test on SK-BR-3; more than 10 µM in the test with A2058; more than 10 µM with MRC5; more than 10 µM in [1]; more than 10000 nM in test [2]; more than 10000 nM in test [3]. Besides, the IC50 in test [4] was more than 10000 nM; in [5] it was more than 10000 nM; in [6], more than 10 µM; at Aurora kinase B, more than 10000 nM; in [7], more than 10 µM.

Take `COc1cc(Br)cc2[nH]cc(-c3cnc(-c4ccc[nH]4)o3)c12`: the IC50 was more than 10 µM in the test with SK-BR-3; more than 10 µM with A2058; more than 10 µM in the test on MRC5; 46 µM in test [1]; 900 nM in test [2]; 1200 nM in test [3]. For the same compound, the IC50 is 1000 nM in [4]; 900 nM in test [5]; more than 10 µM in test [6]; 900 nM at Aurora kinase B; more than 10 µM in [7].
